The values below come from paper PMC3509364 (Angewandte Chemie (International ed. in English), 2012).

For this assay, the target named is PAK1 (Homo sapiens, UniProt Q13153). In words: PAK1 kinase inhibition, IC50 curves at 1 µM ATP. The assay is classed as biochemical.
PAK1, sequence (Q13153 whole entry): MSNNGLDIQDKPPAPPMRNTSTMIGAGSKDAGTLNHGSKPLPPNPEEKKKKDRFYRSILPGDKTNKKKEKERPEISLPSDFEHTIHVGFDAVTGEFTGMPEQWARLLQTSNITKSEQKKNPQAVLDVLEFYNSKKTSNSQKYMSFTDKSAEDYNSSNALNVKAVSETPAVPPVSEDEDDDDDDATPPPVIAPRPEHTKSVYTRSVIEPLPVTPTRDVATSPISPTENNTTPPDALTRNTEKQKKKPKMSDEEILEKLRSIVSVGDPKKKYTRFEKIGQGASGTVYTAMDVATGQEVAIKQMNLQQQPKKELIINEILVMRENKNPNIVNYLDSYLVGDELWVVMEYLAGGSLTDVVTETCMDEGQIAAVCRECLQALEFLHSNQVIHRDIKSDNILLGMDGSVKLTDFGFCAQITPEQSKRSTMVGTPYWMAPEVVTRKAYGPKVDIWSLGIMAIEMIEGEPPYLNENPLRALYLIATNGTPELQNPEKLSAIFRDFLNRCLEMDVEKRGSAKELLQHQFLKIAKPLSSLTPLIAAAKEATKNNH

For orientation: IC50 means the concentration that gives 50% inhibition. With SeCN, the “fold weaker inhibitor of PAK1 than NCS complex 1” value (ratio of IC50 values, 1 µM ATP) came to 7.5 fold. For the same substance, for the setting “read-out: IC50 against PAK1, 1 µM ATP (Figure 3)”, the IC50 worked out at 0.625 ± 0.06 µM.
